One series has as its system HIVADA. Put plainly: HIV replication in primary human macrophages, HIV p24 ELISA. Particulars: for inhibition at 100 µM: Human immunodeficiency virus 1, Macrophage. It is filed as cell-based, Human immunodeficiency virus-1 (HIV). The text has this:
Monocyte isolation and macrophage culture: Human monocytes were isolated from leukopaks obtained from the New York Blood Center. Peripheral blood mononuclear cells (PBMCs) were isolated by differential centrifugation using a Ficoll gradient (GE Healthcare, Piscataway, N.J.) and CD14 positive cells were isolated from PBMCs using CD14 monoclonal antibodies that were then bound by magnetic nanoparticles and separated using a magnetic field (Stem Cell Technologies, Vancouver, BC, Canada). Isolated CD14 positive cells were cultured adherently for 6 days in the presence of 10 ng/ml macrophage-colony stimulating factor (PeproTech, Rocky Hill, N.J.) in RPMI 1640 with 10% FBS, 5% human AB serum, 1% P/S, and 10 mM HEPES to differentiate the cells into macrophages.
HIV replication: After 6 days in culture, macrophages in 48-well plates at a density of 10^5 cells per well were inoculated with 2-20 ng/ml HIVADA, 2 ng/ml HIVYU-2, or 0.2 ng/ml HIVBaL for 24 hours in the presence or absence of purinergic receptor inhibitors. 5 wells were inoculated per condition. After 24 hours, cells were washed with PBS and then cultured with media. Supernatants were collected and medium was changed every 24 hours until 7 days post inoculation (d.p.i.). When the inhibitors oATP, A-740003, MRS 2179, NF 279, BBG, or suramin, were used, they were added when the medium was changed every 24 hours. Viral replication was analyzed by HIV p24 ELISA (Advanced Bioscience Laboratories, Kensington, Md.) according to the manufacturer's instructions

For the next series, the system named is Macrophages. Nature of the series: Cell viability of macrophages, live/dead assay. It is filed as cell-based. Particulars: 100 μM, 24 hours. The text has this: Cells were imaged using a Zeiss AxioObserver.D1 with an LD Plan-Neofluar 20×/0.4 air objective lens. Images were collected at room temperature through a Zeiss AxioCam MRm camera using Axiovision software.

In series [1] the test system is β-lactamase containing HIVBaL. Nature of the series: HIV Entry Assay (β-lactamase / CCF2-AM) in primary human macrophages. The following applies: 100 μM; 4 hours; MOI 0.001-0.01; oATP N=5, others N=3. It counts as cell-based, Human immunodeficiency virus-1 (HIV). As to the method:
HIV Entry Assay: Primary human macrophages were cultured in black 96-well plates with a clear bottom (Corning Inc., Corning, N.Y.) at a density of 43,000 cells per well. After 7-8 days in culture, cells were inoculated with β-lactamase containing HIVBaL at a multiplicity of infection (MOI) of 0.01, 0.005, or 0.001 in the presence or absence of the purinergic receptor inhibitors oATP, NF 279, A-740003, or MRS 2179 for 4 hours. Beta-lactamase containing HIVBaL was generated as described previously (27). Briefly, HEK-293T cells were transfected using calcium phosphate with two plasmids, one containing the HIVBaL genome, pWT/BaL (NIH repository), the other containing β-lactamase fused to REV vpr, pMM310 (NIH repository). Cells were transfected for 16 hours and then supernatant was collected 24 and 48 hours following transfection. […] Viral stocks were generated by sucrose gradient purification of the transfection supernatants.
Alter viral inoculation of primary human macrophages, cells were washed with phenol red-free DMEM (Gibco) then loaded with CCF2-AM for 6 hours at room temperature using the GeneBLAzer In Vivo Detection Kit (Invitrogen, Carlsbad, Calif.). CCF2-AM fluoresces green due to an internal fluorescence resonance energy transfer, but when cleaved by β-lactamase, this interaction is lost and the molecule fluoresces blue. Cells were imaged using an Olympus IX70 with a Plan 10×/0.25 air objective lens. Images were collected at room temperature through an Olympus E-620LS camera attached to the microscope through an OM adapter MF-1. Images were collected directly onto a memory card and there was no image processing following image collection. Images were collected for 8 fields in 4 separate wells per condition and percentage of cells positive for viral entry was determined by counting the number of blue cells (cells that virus had entered) as compared to the total number of blue and green cells.

The target of series [2] is T1, Panx1 hemichannels (Homo sapiens, UniProt Q96RD7). Put plainly: HIV-induced ethidium (Etd) dye uptake, time lapse fluorescence imaging, in PBMCs and CD4+ T lymphocytes. It is filed as cell-based. Details: endogenous in cells; host or cells: primary human PBMCs and purified CD4+ T lymphocytes from leukopacks (New York Blood Center). The following applies: 5 min and 72 h; for Etd uptake (rate) induced by the virus: PBMCs exposed to HIVADA, CD4+ T lymphocytes exposed to HIVADA, HIVBal or HIVLAI, Prob 500 μM, 10Panx1 200 μM, scrPanx1 200 μM, La3+ 200 μM, Cx43E2 1:500, siRNA 10 nM. As to the method:
Isolation of human PBMCs and CD4+ T lymphocytes. Anticoagulated blood was obtained from leukopacks obtained from the New York Blood Center as described before (16). PBMCs were isolated by under-layering with Ficoll-Paque (Amersham Bioscience, Uppsala, Sweden) according to the procedure described by the manufacturer. Purified PBMC used in these studies were ˜10% monocytes and ˜90% lymphocytes and other hematopoietic cells, as determined by incubation with premixed human CD45 and CD14 monoclonal antibodies conjugated to FITC and PE, respectively (1:50, Caltag Laboratories, Burlingame, Calif.), followed by fluorescence-activated cell sorter analysis (FACS) as we previously described (17). To obtain a pure population of CD4+ T lymphocytes, monocytes were removed from PBMCs by using CD14 coupled magnetic beads and subsequently CD4+ T lymphocytes were isolated with CD4 coupled magnetic beads (Stem Cell Technologies, Vancouver, BC, Canada).
HIV-infection and quantification of replication. Cell-free viral inocula were obtained from the National Institutes of Health AIDS Research and Reference Reagent Program. Three isolates were used: HIVADA, and HIVBal, two R5 isolates and HIVLAI, an X4 isolate, PBMCs and purified CD4+ T lymphocytes were isolated and activated with phytohemagglutinin (PHA; 5 μg/ml) plus interleukin (IL-2; 5%) in RPMI 1640 for 48 h in polypropylene tubes at a density of 2×10^6 […] PBMCs and CD4+ T lymphocytes were then infected by incubation for 24 h with viral stocks of HIVADA (20 ng p24/ml/1×10^6 cells), HIVLAI (20 ng p24/ml/1×10^6 cells) or HIVBal (0.001 MOI), washed thoroughly, resuspended in fresh medium, and maintained in polypropylene tubes. Uninfected control cells were activated with PHA plus IL-2 for 48 h, washed, and maintained in polypropylene tubes in fresh media without any virus. To determine the levels of HIV infection, the amount of HIV-p24 released into the medium was determined by ELISA (PerkinElmer, Boston, Mass.)
(§1) Dye uptake and time lapse fluorescence imaging. To characterize the functional state of Panx1 hemichannels, dye uptake experiments using ethidium (Etd) bromide were performed as previously described (18, 19). Cells were washed twice in Hank's balanced salt solution and then exposed to Locke's solution (containing: 154 mM NaCl, 5.4 mM KCl, 2.3 mM CaCl2, 5 mM HEPES and pH 7.4) with 5 μM Etd and time lapse microscopy was performed. Phase-contrast and fluorescence microscopy with time-lapse imaging were used to record cell appearance and fluorescence intensity changes in each condition. Fluorescence was recorded every 30 s. The NIH ImageJ program was used for off-line image analysis and fluorescence quantification. For data representation and calculation of Etd uptake slopes, the average of two independent background fluorescence intensity measurements (FB, expressed as arbitrary units, AU) was subtracted from fluorescence intensity′ in each cell (F1). Results of this calculation (F1-FB), for at least 20 cells, were averaged and plotted against time (expressed in minutes). Slopes were calculated using Microsoft Excel software and expressed as AU/min. Microscope and camera settings remained the same in all experiments. Dead cells were clearly identified during the time lapse microscopy due to their non specific Etd uptake (not inhibited by hemichannel blockers) and were not quantified.

The target in series [3] is T1, Panx1 hemichannels. Nature of the series: HIV-induced Etd uptake in CD4+ T lymphocytes by flow cytometry (FACS). It is filed as cell-based. Further details: endogenous in cells; host or cells: primary human PBMCs and purified CD4+ T lymphocytes from leukopacks (New York Blood Center). Particulars: HIVADA, 5 min and 72 h. As for the experimental part: Flow cytometry. To measure Etd uptake in CD4+ T cell populations FACS analysis was performed of cells under control conditions or after HIV exposure at several time points. Etd uptake experiments were performed in CD4+ lymphocytes (3-5×10^5), and after the respective time of Etd uptake, cells were fixed with 2% paraformaldehyde for 30 min at room temperature, incubated with 1% BSA in PBS for 30 min and stained with CD4 antibody for 30 min at 4° C. For analyses of Etd positive populations, 10,000 events were acquired on a BD FACS Canto II and analyzed using FlowJo (Ashland, Oreg.) software as we previously described (17, 20).
(Flow cytometry measures light scatter and fluorescence of single cells or particles in a stream.)

The target in series [4] is T1, Panx1 hemichannels. Put plainly: Etd uptake in CD4+ T lymphocytes induced by chemokines or gp120. It is filed as cell-based. Further details: endogenous in cells; host or cells: primary human PBMCs and purified CD4+ T lymphocytes from leukopacks (New York Blood Center). The following applies: gp120 1 μg/ml. As for the experimental part: as §1

Entries after “also recorded” stand apart in the source; their conditions may differ. Like-named read-outs stand apart in the source and are kept apart here.

One may read the inhibition as the drop in the measured response relative to a control, in per cent.

T1 sequence (Q96RD7 whole entry): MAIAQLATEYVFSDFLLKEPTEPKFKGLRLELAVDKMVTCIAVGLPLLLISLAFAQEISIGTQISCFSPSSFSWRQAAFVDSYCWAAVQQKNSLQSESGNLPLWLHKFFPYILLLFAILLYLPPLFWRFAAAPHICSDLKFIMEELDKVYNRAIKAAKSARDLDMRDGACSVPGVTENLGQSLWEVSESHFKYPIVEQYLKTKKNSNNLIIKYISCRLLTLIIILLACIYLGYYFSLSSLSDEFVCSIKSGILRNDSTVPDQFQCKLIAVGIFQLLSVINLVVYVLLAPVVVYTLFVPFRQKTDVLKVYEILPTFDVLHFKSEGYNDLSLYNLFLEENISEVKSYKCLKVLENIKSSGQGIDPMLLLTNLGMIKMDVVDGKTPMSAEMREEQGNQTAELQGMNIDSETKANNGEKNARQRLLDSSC

Regarding `COc1ccc(CC(=O)NC(N=C(NC#N)Nc2cccc3ncccc23)C(C)(C)C)cc1OC` (stereo not shown) [A-740003, N-[1-[[(Cyanoamino)(5-quinolinylamino)methylene]amino]-2,2-dimethylpropyl]-3,4-dimethoxybenzeneacetamide], the inhibition at 100 µM in the series on HIVADA (read-out: inhibition of HIV p24 production relative to HIV plus the vehicle DMSO) lay within 70 to 91%. Further, in the series with Macrophages, the “cell viability (live/dead assay)” value is recorded as “did not alter cell viability; also recorded: None of the antagonist caused any decrease in cell viability”. Besides, the “reduction in viral entry (percentage of cells with viral entry) relative to HIV only” value in series [1] was “did not change”.
As for `[La+3]` [La^3+, Lanthanum], the entries for the “Etd uptake (rate) induced by the virus” value on Panx1 hemichannels [2] and at Panx1 hemichannels [2] (listed as Lanthanum) were “did not cause changes” and “did not affect”, respectively.
Regarding `CNc1ncnc2c1ncn2[C@H]1C[C@H](OP(=O)([O-])[O-])[C@@H](COP(=O)([O-])[O-])O1.[Na+].[Na+].[Na+].[Na+]` [MRS 2179, 2′-deoxy-N6-methyladenosine 3′,5′-bisphosphate tetrasodium salt], the inhibition at 100 µM with HIVADA (100 μM, 3 independent donors, NF 279 on days 2-7 post inoculation, read-out: inhibition of HIV p24 production as compared to HIV infected cultures without the inhibitors) lay in the range of 60 to 70%. Besides, the “cell viability (live/dead assay)” value with Macrophages is listed as “did not alter cell viability; also recorded: None of the antagonist caused any decrease in cell viability”. For the same molecule, the “reduction in viral entry (percentage of cells with viral entry) relative to HIV only” value in series [1] is given as “did not change”.
As to `O=C(Nc1ccc(C(=O)Nc2ccc(C(=O)Nc3ccc(S(=O)(=O)[O-])c4cc(S(=O)(=O)[O-])cc(S(=O)(=O)[O-])c34)cc2)cc1)Nc1ccc(C(=O)Nc2ccc(C(=O)Nc3ccc(S(=O)(=O)[O-])c4cc(S(=O)(=O)[O-])cc(S(=O)(=O)[O-])c34)cc2)cc1.[Na+].[Na+].[Na+].[Na+].[Na+].[Na+]` [NF 279, 8,8′-[Carbonylbis(imino-4,1-phenylenecarbonylimino-4,1-phenylenecarbonylimino)]bis-1,3,5-naphthalenetrisulfonic acid hexasodium salt], in the series with HIVADA (100 μM, 3 independent donors, NF 279 on days 2-7 post inoculation), the “inhibition of HIV p24 production as compared to HIV infected cultures without the inhibitors” value was 90-98%. Also, the “cell viability (live/dead assay)” value with Macrophages is “did not alter cell viability; also recorded: None of the antagonist caused any decrease in cell viability”. For the same molecule, the “reduction in viral entry (percentage of cells with viral entry) relative to HIV only” value in series [1] turned out to be 98%.
On to `Cc1ccc(-c2ccc3c(c2)C=C(C(=O)Nc2ccc(C[N+](C)(C)C4CCOCC4)cc2)CCC3)cc1.[Cl-]` [TAK-779], for which the “Etd uptake induced by R5 viruses” value on Panx1 hemichannels [2] (CD4+ T lymphocytes, HIVADA and HIVBal, TAK-779 100 ng/ml) is listed as “reduced”.
For the molecule `CCCN(CCC)S(=O)(=O)c1ccc(C(=O)O)cc1` [probenecid], on Panx1 hemichannels [2], the “Etd uptake (rate) induced by the virus” value is “completely blocked; also recorded: completely reduced”. The “Etd uptake induced by the virus, analyzed by FACS” value on Panx1 hemichannels [3] was “reduced Etd uptake”; at Panx1 hemichannels [3] (listed as Probenecid) it was “reduced to control conditions (100%)”. Moreover, the “gp120-induced Etd uptake, in presence of blockers” value at Panx1 hemichannels [4] (5 min) is given as “inhibited”.
Turning to `Cc1ccc(C(=O)Nc2ccc(S(=O)(=O)O)c3cc(S(=O)(=O)O)cc(S(=O)(=O)O)c23)cc1NC(=O)c1cccc(NC(=O)Nc2cccc(C(=O)Nc3cc(C(=O)Nc4ccc(S(=O)(=O)O)c5cc(S(=O)(=O)O)cc(S(=O)(=O)O)c45)ccc3C)c2)c1` [suramin], the “inhibition of HIVADA replication” value in the series with HIVADA (suramin, every time point tested, N=3 donors) amounted to 100%. For the same molecule, the “cell viability (live/dead assay)” value with Macrophages is listed as “None of the antagonist caused any decrease in cell viability; also recorded: without altering cell viability”.
Consider “RANTES/CCL5: a physiological ligand for CCR5”, for which the “Etd uptake after single addition of chemokine or gp120” value in the series with Panx1 hemichannels [4] (chemokines 100 ng/ml, time course) was “fast and extremely transient increase (only 5 min)”.
